Broadly, the IC50 is the concentration at which inhibition is half-maximal. A higher IC50 goes with lower potency.

Data on 15 compounds can be found in patent publication EP2571508B1, “PROCESS FOR PRODUCING A SHRIMP HYDROLYSATE USING ELECTRODIALYSIS” (Marealis AS, priority 2010, dated 2011).

Peptide text beside a SMILES is read from it. Where only a bound is given, the exact number is not on record here.

The target in the experiment is T1, ACE (Oryctolagus cuniculus, UniProt P12822).
T1 construct: purchased Sigma A 6778
T1 sequence (P12822 34-1310): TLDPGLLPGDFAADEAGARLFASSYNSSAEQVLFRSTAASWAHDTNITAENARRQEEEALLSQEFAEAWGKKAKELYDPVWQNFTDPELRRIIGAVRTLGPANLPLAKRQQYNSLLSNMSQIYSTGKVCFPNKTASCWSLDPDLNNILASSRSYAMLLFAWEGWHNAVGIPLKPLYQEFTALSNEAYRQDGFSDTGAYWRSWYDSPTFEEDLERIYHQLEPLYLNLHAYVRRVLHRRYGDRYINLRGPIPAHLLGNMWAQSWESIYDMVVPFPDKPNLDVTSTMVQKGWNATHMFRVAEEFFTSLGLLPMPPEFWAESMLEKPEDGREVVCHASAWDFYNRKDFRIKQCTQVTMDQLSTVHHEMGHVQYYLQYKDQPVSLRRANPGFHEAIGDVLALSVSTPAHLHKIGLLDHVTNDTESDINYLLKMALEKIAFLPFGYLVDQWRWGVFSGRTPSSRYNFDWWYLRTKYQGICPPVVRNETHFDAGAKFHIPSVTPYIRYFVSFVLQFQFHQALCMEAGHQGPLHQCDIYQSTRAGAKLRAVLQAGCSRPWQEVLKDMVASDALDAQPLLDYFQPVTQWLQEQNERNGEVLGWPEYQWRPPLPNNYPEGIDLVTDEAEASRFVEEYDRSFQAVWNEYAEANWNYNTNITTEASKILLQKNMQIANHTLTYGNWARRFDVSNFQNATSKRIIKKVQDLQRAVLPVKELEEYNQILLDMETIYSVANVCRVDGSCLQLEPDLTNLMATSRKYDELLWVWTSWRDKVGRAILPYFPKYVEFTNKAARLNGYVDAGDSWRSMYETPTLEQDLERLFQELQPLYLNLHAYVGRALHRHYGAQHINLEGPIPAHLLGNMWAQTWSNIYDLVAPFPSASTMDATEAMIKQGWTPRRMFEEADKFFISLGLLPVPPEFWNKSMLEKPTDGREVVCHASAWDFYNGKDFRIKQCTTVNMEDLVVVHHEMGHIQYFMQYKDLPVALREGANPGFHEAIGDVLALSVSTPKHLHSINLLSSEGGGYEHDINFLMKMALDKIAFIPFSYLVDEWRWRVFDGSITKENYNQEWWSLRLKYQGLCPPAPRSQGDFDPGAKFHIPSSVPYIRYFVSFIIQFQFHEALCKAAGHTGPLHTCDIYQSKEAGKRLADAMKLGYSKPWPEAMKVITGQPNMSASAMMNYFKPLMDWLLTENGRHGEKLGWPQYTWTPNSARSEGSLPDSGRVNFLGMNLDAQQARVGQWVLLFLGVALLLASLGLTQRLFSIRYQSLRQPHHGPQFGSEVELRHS
In words: ACE-inhibitory activity, Cushman and Cheung method (hippuric acid from HHL). To be noted: synthesized peptides. Type of experiment: biochemical. From the text: The hydrolysate of the present invention has ACE-inhibitory activity. ACE-inhibitory activity may be assayed using known methods, for example based on the method reported by Cushman and Cheung (1971) by measuring the end product hippuric acid (HA) from the enzymatic reaction between ACE (Sigma A 6778) and the substrate HHL (Sigma H 1635). (CUSHMAN, D. W. & CHEUNG, H. S. (1971). Concentrations of Angiotensin-Converting Enzyme in Tissues of Rat. Biochimica Et Biophysica Acta 250(1), 261-265). A different suitable assay is disclosed by Vermeirssen et al. (2002), J. Biochem Biophys. Methods 51 (2002), pages 75-87. Briefly, this is a spectrophotometric method in which ACE inhibition is measured using the substrate furanacryloyl-Phe-Gly-Gly and rabbit lung acetone extract as the ACE source. The IC50 may be determined.
The peptide composition of the RP-HPLC fractions was analysed using LCMS (liquid chromatography mass spectrometry) and individual peptides were sequenced using LC-MS/MS (liquid chromatography - tandem mass spectrometry). Peptides having the sequences identified by LC-MS/MS were then synthesized and analysed. Molecular weight and pl were calculated by ExPASy Proteomics Server. ACE-inhibitory activity was determined based on the Cushman and Cheung method mentioned elsewhere herein and expressed as the IC50 (concentration that inhibits 50% of enzyme activity).

Compound `CC(C)C[C@H](NC(=O)[C@@H](N)CC(C)C)C(=O)N[C@H](C(=O)N[C@@H](CCCCN)C(=O)O)[C@@H](C)O` [LLTK] (H-LLTK-OH) came in with an IC50 greater than 300 µM.

`CC(C)C[C@H](N)C(=O)N[C@H](C(=O)N[C@@H](C)C(=O)N[C@@H](Cc1c[nH]cn1)C(=O)O)C(C)C` [LVAH] (H-LVAH-OH) showed an IC50 greater than 300 µM.

In turn, `CC(C)C[C@H](N)C(=O)N[C@@H](CC(N)=O)C(=O)N1CCC[C@H]1C(=O)N[C@@H](CCCCN)C(=O)O` [LNPK] (H-LNPK-OH) had an IC50 greater than 300 µM.

As to `CC(C)C[C@H](N)C(=O)N[C@H](C(=O)N[C@@H](CCCCN)C(=O)O)C(C)C` [LVK] (H-Leu-Val-Lys-OH), the IC50 was determined as 225 µM.

For `CC(C)[C@H](NC(=O)[C@@H](N)CC(N)=O)C(=O)N[C@@H](Cc1ccc(O)cc1)C(=O)O` [NVY] (H-Asn-Val-Tyr-OH), the IC50 is greater than 300 µM.

In turn, `CC(C)C[C@H](N)C(=O)N[C@@H](Cc1ccccc1)C(=O)O` [LF] (H-Leu-Phe-OH) registered an IC50 of 460 µM.

With `CC(C)C[C@H](N)C(=O)N[C@@H](Cc1ccc(O)cc1)C(=O)N[C@@H](CCCCN)C(=O)O` [LYK] (H-Leu-Tyr-Lys-OH), the IC50 was 250 µM.

In turn, `CC(C)C[C@H](NC(=O)[C@H](CC(C)C)NC(=O)[C@@H](N)CC(C)C)C(=O)N[C@@H](CCCCN)C(=O)O` [LLLK] (H-LLLK-OH) had an IC50 greater than 300 µM.

For `CC(C)C[C@H](NC(=O)[C@@H](N)Cc1ccccc1)C(=O)O` [FL] (H-Phe-Leu-OH), the IC50 worked out at 380 µM.

In the case of `CC(C)C[C@H](NC(=O)[C@@H](N)C(C)C)C(=O)N[C@@H](C)C(=O)N[C@@H](Cc1c[nH]cn1)C(=O)O` [VLAH*] (H-VLAH-OH), the IC50 is greater than 300 µM.

`CC(C)C[C@H](N)C(=O)N[C@H](C(=O)N[C@@H](C)C(=O)N[C@@H](CCCCN)C(=O)O)C(C)C` [LVAK] (H-LVAK-OH) had an IC50 greater than 300 µM.

With `CC(C)C[C@H](NC(=O)[C@@H](N)CCCCN)C(=O)N1CCC[C@H]1C(=O)O` [KLP] (H-Lys-Leu-Pro-OH), the midpoint of inhibition, the IC50, lay at 200 µM.

`CC(C)C[C@H](N)C(=O)N[C@@H](CC(N)=O)C(=O)N[C@@H](C)C(=O)O` [LNA*] (H-Leu-Asn-Ala-OH) yielded an IC50 of 200 µM.

On to `CC(C)C[C@H](NC(=O)[C@H](C)N)C(=O)N1CCC[C@H]1C(=O)N[C@@H](Cc1c[nH]cn1)C(=O)O` [ALPH] (H-ALPH-OH), for which the IC50 is greater than 300 µM.

As to `NCCCC[C@H](NC(=O)[C@@H]1CCCN1C(=O)[C@@H](N)CC(N)=O)C(=O)O` [NPK*] (H-Asn-Pro-Lys-OH), the IC50 was greater than 300 µM.
